Measured values: patent publication US9023789B2, “Amylin analogs and pharmaceutical compositions thereof” (Novo Nordisk A/S, priority 2012, dated 2015)
Like-named read-outs stand apart in the source and are kept apart here. Numbered stars: 1 amine (or outer) side, 2 acyl side, 3 side chain; on linkers, the order of the positions; unused ones are H or OH. Bridge positions count the residues as written; N and C are the ends. Side chains are listed from the residue outwards. Peptide text beside a SMILES is read from it. * marks the point of attachment. C20 diacid = O=C(O)CCCCCCCCCCCCCCCCCCC(=O)*; γGlu = O=C(O)[C@H](CCC(=O)[*:2])N[*:1]; AEEA = NCCOCCOCC(=O)O

Assays:
[1] = target: T1, human calcitonin (a) receptor in BHK570 cells (Homo sapiens, UniProt P30988); experiment: ASSAY (II)a functional assay, human calcitonin receptor (CRE luciferase); type: cell-based; details: read-out: hCTR funct. EC50
T1 construct: expressed in transfected cells
T1 sequence (P30988 25-474): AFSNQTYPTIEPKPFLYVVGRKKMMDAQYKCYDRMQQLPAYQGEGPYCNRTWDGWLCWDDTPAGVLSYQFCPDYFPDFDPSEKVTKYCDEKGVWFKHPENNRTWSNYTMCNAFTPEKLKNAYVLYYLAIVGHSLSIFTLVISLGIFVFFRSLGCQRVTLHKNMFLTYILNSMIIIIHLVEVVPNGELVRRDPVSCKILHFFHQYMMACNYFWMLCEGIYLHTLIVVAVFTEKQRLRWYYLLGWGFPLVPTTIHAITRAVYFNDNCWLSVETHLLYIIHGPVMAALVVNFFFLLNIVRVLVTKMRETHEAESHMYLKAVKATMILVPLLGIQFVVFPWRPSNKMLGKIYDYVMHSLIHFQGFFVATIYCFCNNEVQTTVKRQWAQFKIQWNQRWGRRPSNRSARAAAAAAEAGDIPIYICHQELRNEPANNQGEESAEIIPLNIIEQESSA
Outline: (§1)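 Receptor activation is measured as cAMP-driven CRE-luciferase expression in BHK cells expressing the calcitonin receptor, with RAMP-3 co-expressed to form the amylin 3(a) receptor. Cells are exposed to compound for 3 hours at 37° C, and luciferase is then quantified by luminescence.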

[2] = target: T2, human amylin receptor (membranes from Amylin 3(a)/CRE-luc cells) (Homo sapiens, UniProt O60896+P30988); experiment: ASSAY (V) binding to the human amylin receptor (SPA, 125I-rat amylin); details: for IC50: Table 4, read-out: hAmylin-R bind IC50;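 on all read-outs here: competition binding of cell membranes (35 ng/µL) mixed with SPA beads in 384-well plates at 40 µL total volume, read by scintillation counting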
T2 construct: expressed in transfected cells
T2 sequence (P30988 25-474): T1 sequence (P30988 25-474)
T2 sequence (O60896 24-148 partner): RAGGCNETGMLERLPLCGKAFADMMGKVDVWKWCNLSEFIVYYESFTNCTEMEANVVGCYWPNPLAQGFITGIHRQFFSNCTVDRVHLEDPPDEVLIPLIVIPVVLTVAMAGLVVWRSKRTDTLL

[3] = ASSAY (IV) determination of solubility; type: physicochemical
Outline: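 UPLC read-out of polypeptide concentration after centrifugation. Samples: aqueous polypeptide stock ([…]) + 100 mM buffer 1:1, glycylglycine pH 3.0–5.0 or bistrispropane pH 6.0–8.0; 18 h, RT.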

[4] = target: T3, human calcitonin receptor (Homo sapiens, UniProt P30988); experiment: ASSAY (VII) binding to the human calcitonin receptor (SPA, 125I-Calcitonin); details: read-out: hCTR bind IC50;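 further: cell membranes (35 ng/µL) combined with SPA beads in 40 µL of pH 7.4 Hepes buffer, 384-well format, signal counted on a TopCounter instrument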
T3 construct: expressed in transfected cells
T3 sequence (P30988 25-474): T1 sequence (P30988 25-474)

[5] = target: T4, human amylin 3(a) receptor (human calcitonin receptor + RAMP-3) in BHK570 cells (Homo sapiens, UniProt O60896+P30988); experiment: ASSAY (II)a functional assay, human amylin receptor (CRE luciferase); type: cell-based; details: for EC50: human amylin receptor functional potency, assay (II), read-out: hAmylin-R funct. EC50
T4 construct: expressed in transfected cells
Outline: as §1

[6] = Table 5, selectivity, hCTR bind IC50 / hAmylin-R bind IC50
[7] = Table 5a, selectivity, hCTR bind IC50 / hAmylin-R bind IC50
[8] = Table 5b, selectivity, hCTR bind IC50 / hAmylin-R bind IC50
[9] = Table 5c, selectivity, hCTR bind IC50 / hAmylin-R bind IC50
[10] = Table 7, human binding selectivity, included for comparison
[11] = Table 7a (preferred compounds), human binding selectivity, included for comparison
[12] = ratio of human calcitonin receptor binding IC50 to human amylin receptor binding IC50
[13] = bistrispropane buffer, pH 6.5, read-out: Solubility pH 6.5 Concentration
[14] = bistrispropane buffer, pH 7.5, read-out: Solubility pH 7.5 Concentration
[15] = bistrispropane buffer, pH 6.0, read-out: Solubility pH 6.0 Concentration
[16] = bistrispropane buffer, pH 7.0, read-out: Solubility pH 7.0 Concentration
[17] = bistrispropane buffer, pH 8.0, read-out: Solubility pH 8.0 Concentration
[18] = glycylglycine buffer, pH 3.0, read-out: Solubility pH 3.0 Concentration
[19] = glycylglycine buffer, pH 4.0, read-out: Solubility pH 4.0 Concentration
[20] = glycylglycine buffer, pH 5.0, read-out: Solubility pH 5.0 Concentration
[21] = hCTR funct. EC50 divided by hAmylin-R funct. EC50
[22] = hCTR funct. EC50 over hAmylin-R funct. EC50
[23] = human functional selectivity: hCTR funct. EC50 / hAmylin-R funct. EC50

Row | Compound | EC50 [1] [nM] | IC50 [2] [nM] | Ratio hCT/hAmylin binding [2, 6] | Ratio hCT/hAmylin binding [2, 7] | Ratio hCT/hAmylin binding [2, 8] | Ratio hCT/hAmylin binding [2, 9] | Ratio hCT/hAmylin binding [2, 10] | Ratio hCT/hAmylin binding [2, 11] | Ratio hCT/hAmylin binding [2, 12] | solubility at 18 h [3, 13] [µM] | solubility at 18 h [3, 14] [µM] | solubility at 18 h [3, 15] [µM] | solubility at 18 h [3, 16] [µM] | solubility at 18 h [3, 17] [µM] | solubility at 18 h [3, 18] [µM] | solubility at 18 h [3, 19] [µM] | solubility at 18 h [3, 20] [µM] | IC50 [4] [nM] | Ratio hCT/hAmylin funct. [5, 21] | Ratio hCT/hAmylin funct. [5, 22] | also measured
1 | CC[C@H](C)[C@H](NC(=O)[C@H](C)NC(=O)CNC(=O)[C@H](Cc1ccccc1)NC(=O)[C@H](CC(N)=O)NC(=O)[C@@H]1CCCN1C(=O)[C@H](CO)NC(=O)[C@H](CO)NC(=O)[C@H](Cc1c[nH]cn1)NC(=O)[C@H](CCCNC(=N)N)NC(=O)[C@H](CC(C)C)NC(=O)[C@H](Cc1ccccc1)NC(=O)[C@H](CC(N)=O)NC(=O)[C@H](C)NC(=O)[C@H](CC(C)C)NC(=O)[C@H](CCCNC(=N)N)NC(=O)[C@H](CCC(N)=O)NC(=O)[C@@H](NC(=O)[C@H](C)NC(=O)[C@@H]1CSSC[C@H](NC(=O)[C@@H](N)CCCCNC(=O)COCCOCCNC(=O)CC[C@H](NC(=O)CCCCCCCCCCCCCCCCCCC(=O)O)C(=O)O)C(=O)N[C@@H](CC(N)=O)C(=O)N[C@@H]([C@@H](C)O)C(=O)N[C@@H](C)C(=O)N[C@@H]([C@@H](C)O)C(=O)N1)[C@@H](C)O)C(=O)N1CCC[C@H]1C(=O)N[C@@H](CO)C(=O)N[C@@H](CO)C(=O)N[C@H](C(=O)N[C@@H](CC(N)=O)C(=O)N[C@H](C(=O)NCC(=O)N[C@@H](CCCNC(=N)N)C(=O)N[C@@H](CC(N)=O)C(=O)N[C@H](C(=O)N[C@@H](Cc1ccc(O)cc1)C(N)=O)[C@@H](C)O)C(C)C)[C@@H](C)O [Example 78] (H-K([AEEA-γGlu-C20 diacid])CNTATCATQRLANFLRHSSPNFGAIPSSTNVGRNTY-NH2; disulfide 2-7 (inferred)) | 8.17 | 0.602 | 60.7 | 60.7 | 60.7 | 60.7 | 60.7 | 60.7 | 60.7 | ≥ 200 | ≥ 200 | ≥ 200 | ≥ 200 | ≥ 200 | ≥ 200 | ≥ 200 | ≥ 200 | 36.6 | 25.8 | 25.8 | EC50 [5]: 0.316 nM; Ratio hCT/hAmylin funct. [5, 23]: 25.8
2 | CC[C@H](C)[C@H](NC(=O)[C@H](C)NC(=O)CNC(=O)[C@H](Cc1ccccc1)NC(=O)[C@H](CC(N)=O)NC(=O)[C@@H]1CCCN1C(=O)[C@H](CO)NC(=O)[C@H](CO)NC(=O)[C@H](Cc1c[nH]cn1)NC(=O)[C@H](CCCNC(=N)N)NC(=O)[C@H](CC(C)C)NC(=O)[C@H](Cc1ccccc1)NC(=O)[C@H](CC(N)=O)NC(=O)[C@H](C)NC(=O)[C@H](CC(C)C)NC(=O)[C@H](CCCNC(=N)N)NC(=O)[C@H](CCC(N)=O)NC(=O)[C@@H](NC(=O)[C@H](C)NC(=O)[C@@H]1CSSC[C@H](NC(=O)[C@@H](N)CCCCNC(=O)CC[C@H](NC(=O)CCCCCCCCCCCCCCCCCCC(=O)O)C(=O)O)C(=O)N[C@@H](CC(N)=O)C(=O)N[C@@H]([C@@H](C)O)C(=O)N[C@@H](C)C(=O)N[C@@H]([C@@H](C)O)C(=O)N1)[C@@H](C)O)C(=O)N1CCC[C@H]1C(=O)N[C@@H](CO)C(=O)N[C@@H](CO)C(=O)N[C@H](C(=O)N[C@@H](CC(N)=O)C(=O)N[C@H](C(=O)NCC(=O)N[C@@H](CCCNC(=N)N)C(=O)N[C@@H](CC(N)=O)C(=O)N[C@H](C(=O)N[C@@H](Cc1ccc(O)cc1)C(N)=O)[C@@H](C)O)C(C)C)[C@@H](C)O [Example 79] (H-K([γGlu-C20 diacid])CNTATCATQRLANFLRHSSPNFGAIPSSTNVGRNTY-NH2; disulfide 2-7 (inferred); N-terminus assumed) | 3.94 | 0.79 | 46.1 | 46.1 | 46.1 | 46.1 | 46.1 | 46.1 | 46.1 | ≥ 200 | ≥ 200 | ≥ 200 | ≥ 200 | ≥ 200 | ≥ 200 | ≥ 200 | ≥ 200 | 36.4 | 24.5 | 24.5 | EC50 [5]: 0.161 nM; Ratio hCT/hAmylin funct. [5, 23]: 24.5
